# Measurements: patent publication US6514964B1, “Fused cycloheptane and fused azacycloheptane compounds and their methods of use” (Amgen Inc., priority 1999, dated 2003)
# Counter-ions that a name gives are not always drawn.
# System: human umbilical cord endothelial cells (HUVEC)
# Assay: HUVEC proliferation assay and/or HUVEC adhesion assay
# Assay type: cell-based
# Details: bound stated for the listed compounds
# Protocol: HUVEC Proliferation Assay
# 1. Coat 3 NUNC polystyrene 96 well plate (VWR, 62409-120; lids 62409-118) with vitronectin (purified internally), fibronectin (Collaborative Biomed 40008A) or fibrinogen (Calbiochem 341578) 50 ng/well in 50 μl PBS, 1 hr @ RT.
# a. rinse with 5 mls PBS (no Ca, Mg)
# 3. Rinse vitronectin plates 1× in 200 μl PBS −/− and add 3000 cells per well in 100 ul growth medium (EBM2 (Clonetics, CC-3156)+EGM2 bullet kit (CC-4176)).
# 4. Incubate 24 hours at 37° C. to allow attachment.
# 5. Remove growth medium and add 100 μl growth medium+drugs (25 μM and down by five fold steps in DMSO-0.25% final DMSO concentration).
# 6. Incubate for 3 days changing media (+drugs).
# 7. Remove non-adherent cells on Friday with Raindance 12 well plate washer.
# 8. Wash twice with 200 μl PBS (+Mg & Ca).
# 9. Tap out excess liquid.
# 10. Freeze @ −70° C. for 30 minutes.
# 11. Thaw plate and add 150 μl CyQuant fluorescent dye (Molecular Probes C-7026).
# 12. Read after 4 minutes @ 485λ (excitation), 530λ (emission).
# 1. Coat 2 NUNC polystyrene 96 well plates (VWR, 62409-120; lids 62409-118) with 50 μl vitronectin (purified internally) at 50 ng/well in PBS (−Mg & Ca), for 1 hour @ 37° C.
# 2. Rinse with PBS & block with 150 μl PBS/1% BSA (Sigma A8918), 1 hour at @ 37° C.
# 3. Prepare drug dilutions:
# a. 400 fold concentrate in 100% DMSO
# b. 0.25% DMSO [assay]final
# c. 10 mM & down (25 μMfinal & down)
# d. dilute 1 μl of 400 fold conc into 200 μl adhesion media
# a. rinse with 5 ml PBS (no Ca, Mg)
# 6. Rinse blocking buffer from assay plate and add 50 μl of drug dilutions.
# 7. Resuspend cells in adhesion media, count and add 2e4 cells/well in 50 μl (4e5/ml).
# 8. Incubate 60 minutes @ 37° C.
# 9. Remove non-adherent cells with Raindance 12 well plate washer.
# 10. Wash twice with 200 μl PBS (+Mg & Ca)
# 11. Tap out excess liquid.
# 12. Freeze @ −70° C. for 30 minutes to overnite.
# 13. Thaw plate and add 150 μl CyQuant fluorescent dye (Molecular Probes C-7026).
# 14. Read after 2-5 minutes @ 485λ (excitation), 530λ (emission).
# Adhesion medium: Media 199 (which contains […] and 0.8 mM MgSO4), 0.5% BSA, 10 mM HEPES, 1 mM MgCl2, and 1 mM MnCl2
row,SMILES,IC50 [µM]
1,"Cc1cc(CCCNC(=O)N2CCC(CC(=O)O)c3ccccc3C2)nc2c1CCCN2 (stereo not drawn) [2-(2-{N-[3-(5-methyl-1,2,3,4-tetrahydropyridino[2,3-b]pyridin-7-yl)propyl]carbamoyl}-1H, 3H, 4H, 5H-benzo[e]azepin-5-yl)acetic acid]",≤ 30
2,"O=C(O)CC1CN(C(=O)NCCc2ccc3c(n2)NCCC3)CCc2ccccc21 (stereo not drawn) [2-(3-(N-(2-(1,2,3,4-tetrahydropyridino[2,3-b]pyridin-7-yl)ethyl)carbamoyl)-1H, 2H, 4H, 5H-benzo[d]azepin-1-yl}acetic acid]",≤ 30
3,"Cc1ccnc(NCCCCNC(=O)N2CCC(CC(=O)O)c3ccccc3C2)c1 (stereo not drawn) [2-[2-(N-{4-[(4-methyl-2-pyridyl)amino]butyl}carbamoyl)-1H, 3H, 4H, 5H-benzo[e]azepin-5-yl]acetic acid]",≤ 30
4,"O=C(O)CC1CCN(C(=O)NCCCCNC(=O)NCc2ccccc2)Cc2ccccc21 (stereo not drawn) [2-{2-[N-(4-{[benzylamino]carbonylamino}butyl)carbamoyl]-1H, 3H, 4H, 5H-benzo[e]azepin-5-yl}acetic acid]",≤ 30
5,"O=C(O)CC1CCN(C(=O)NCCCNc2ccccn2)Cc2ccccc21 (stereo not drawn) [Example 2, 2-(2-(N-(3-(2-pyridylamino)propyl)carbamoyl)-1H,3H,4H,5H-benzo[e]azain-5-yl)acetic acid]",≤ 30
6,"O=C(O)CC1CCN(C(=O)NCCCCNc2ccccn2)Cc2ccccc21 (stereo not drawn) [Example 3, 2-(2-(N-(4-(2-pyridylamino)butyl)carbamoyl)-1H,3H,4H,5H-benzo[e]azapin-5-yl)acetic acid]",≤ 30
7,"O=C(O)CC1CCN(C(=O)NCCCCCNc2ccccn2)Cc2ccccc21 (stereo not drawn) [Example 4, 2-(2-(N-(5-(2-pyridylamino)pent-1-yl)carbamoyl)-1H,3H,4H,5H-benzo[e]azapin-5-yl)acetic acid]",≤ 30
8,"CN(CCCCNc1ccccn1)C(=O)N1CCC(CC(=O)O)c2ccccc2C1 (stereo not drawn) [Example 5, 2-(2-(N-methyl—N-(4-(2-pyridylamino)but-1-yl)carbamoyl)-1H,3H,4H,5H-benzo[e]azapin-5-yl)acetic acid]",≤ 30
9,"O=C(O)CC1CCN(C(=O)NC2CCC(Nc3ccccn3)CC2)Cc2ccccc21 (stereo not drawn) [Example 6, 2-(2-(N-(4-(2-pyridylamino)-trans-cyclohexyl)carbamoyl)-1H,3H,4H,5H-benzo[e]azapin-5-yl)acetic acid]",≤ 30
10,"O=C(O)CC1CCN(C(=O)N2CCC(CNc3ccccn3)CC2)Cc2ccccc21 (stereo not drawn) [Example 7, 2-(2-(((4-(2-pyridylamino)methyl)piperid-1-yl)carbonyl)-1H,3H,4H,5H-benzo[e]azapin-5-yl)acetic acid]",≤ 30
11,"O=C(O)CC1CCN(C(=O)Nc2cccc(CNc3ccccn3)c2)Cc2ccccc21 (stereo not drawn) [Example 8, 2-(2-(N-(3-(2-pyridylamino)methylphenyl)carbamoyl)-1H,3H,4H,5H-benzo[e]azapin-5-yl)acetic acid]",≤ 30
12,"Cc1cccc(NCCCCNC(=O)N2CCC(CC(=O)O)c3ccccc3C2)n1 (stereo not drawn) [Example 9, 2-(2-(N-(4-((6-methyl-2-pyridyl)amino)but-1-yl)carbamoyl)-1H,3H,4H,5H-benzo[e]azapin-5-yl)acetic acid]",≤ 30
13,"O=C(O)CC1CCN(C(=O)NCCCCNc2ncccn2)Cc2ccccc21 (stereo not drawn) [Example 10, 2-(2-(N-(4-(pyrimidin-2-ylamino)but-1-yl)carbamoyl)-1H,3H,4H,5H-benzo[e]azapin-5-yl)acetic acid]",≤ 30
14,"Nc1cccc(CCCNC(=O)N2CCC(CC(=O)O)c3ccccc3C2)n1 (stereo not drawn) [Example 11, 2-(2-(N-(3-(6-amino-2-pyridyl)prop-1-yl)carbamoyl)-1H,3H,4H,5H-benzo[e]azapin-5-yl)acetic acid Hydrochloride]",≤ 30
15,"CC(C)(C)OC(=O)Nc1cccc(CCCNC(=O)N2CCC(CC(=O)O)c3ccccc3C2)n1 (stereo not drawn) [Example 12, 2-(2-(N-(3-(6-(tert-butoxycarbonylamino)-2-pyridyl)proyl)carbamoyl)-1H,3H,4H,5H-benzo[e]azapin-5-yl)acetic acid]",≤ 30
16,"O=C(O)CC1CCN(C(=O)NCCCc2ccc3c(n2)NCCC3)Cc2ccccc21 (stereo not drawn) [Example 13, 2-(2-(N-(3-(1,2,3,4-tetrahydropyridino(2,3-b)pyridin-7-yl)prop-1-yl)carbamoyl)-1H,3H,4H,5H-benzo[e]azapin-5-yl)acetic acid]",≤ 30
17,"O=C(O)CC1CCN(S(=O)(=O)NCCCCNc2ccccn2)Cc2ccccc21 (stereo not drawn) [Example 14, 2-(2-(((4-(2-pyridylamino)but-1-yl)amino)sulfonyl)-1H,3H,4H,5H-benzo[e]azapin-5-yl)acetic acid]",≤ 30

row,SMILES,IC50 [µM]
1,"O=C(O)CC1CCN(S(=O)(=O)NCCCNc2ccccn2)Cc2ccccc21 (stereo not drawn) [Example 15, 2-(2-(((3-(2-pyridylamino)prop-1-yl)amino)sulfonyl)-1H,3H,4H,5H-benzo[e]azapin-5-yl)acetic acid]",≤ 30
2,"O=C(O)CC1CCN(C(=O)CNCCNc2ccccn2)Cc2ccccc21 (stereo not drawn) [Example 16, 2-(2-(2-((2-(2-pyridylamino)ethyl)amino)acetyl)-1H,3H,4H,5H-benzo[e]azain-5-yl)acetic acid]",≤ 30
3,O=C(O)CC1CCN(C(=O)CNCCCNc2ccccn2)Cc2ccccc21 (stereo not drawn) [Example 17],≤ 30
4,O=C(O)CC1CCN(C(=O)CNCCCCNc2ccccn2)Cc2ccccc21 (stereo not drawn) [Example 18],≤ 30
5,"O=C(O)CC1CCN(CC(=O)NCCCNc2ccccn2)Cc2ccccc21 (stereo not drawn) [Example 19, 2-(2-((N-(3-(2-pyridylamino)prop-1-yl)carbamoyl)methyl)-1H,3H,4H,5H-benzo[e]azapin-5-yl)acetic acid]",≤ 30
6,"O=C(O)CC1CCN(C(=O)OCCCCNc2ccccn2)Cc2ccccc21 (stereo not drawn) [Example 20, 2-(2-(4-(2-pyridylamino)but-1-oxycarbonyl)-1H,3H,4H,5H-benzo[e]azapin-5-yl)acetic acid]",≤ 30
7,"COc1ccc2c(c1)CN(C(=O)NCCCCNc1ccccn1)CCC2CC(=O)O (stereo not drawn) [Example 22, 2-(8-methoxy-2-(N-(4-(2-pyridylamino)but-1-yl)carbamoyl)-1H,3H,4H,5H-benzo[e]azaerhydroepin-5-yl)acetic acid]",≤ 30
8,"O=C(O)CC1CCN(C(=O)NCCCc2ccc3c(n2)NCCC3)Cc2cc(F)ccc21 (stereo not drawn) [Example 24, 2-(8-fluoro-2-(N-(3-(1,2,3,4-tetrahydropyridino [2,3,b]pyridin-7-yl)propyl)carbamoyl)-1H,3H,4H,5H-benzo[e]azaperhydroepin-5-yl)acetic acid]",≤ 30
9,"O=C(O)CC1CC(=O)N(CC(=O)NCCCNc2ccccn2)Cc2ccccc21 (stereo not drawn) [Example 25, 2-(2-({N-(4-(2-pyridylamino)prop-1-yl)carbamoyl}methyl)-3-oxo-1H,4H,5H-benzo(e)azepin-5-yl) acetic acid]",≤ 30
10,"O=C(O)CC1CN(CC(=O)NCCCCNc2ccccn2)CCc2ccccc21 (stereo not drawn) [Example 27, 2-(3-({N-(4-(2-pyridylamino)but-1-yl)carbamoyl}methyl)-1H,2H,4H,5H-benzo[d]azepin-1-yl) acetic acid]",≤ 30
11,"O=C(O)CC1CN(CC(=O)NCCCc2ccc3c(n2)NCCC3)CCc2ccccc21 (stereo not drawn) [Example 28, 2-(3-{[N-(3-(1,2,3,4-tetrahydropyridino[2,3-b]pyridin-7-yl)propyl)carbamoyl]methyl}-1H,2H,4H,5H-benzo[d]azepinyl)acetic acid]",≤ 30
12,"O=C(O)CC1CN(C(=O)NCCCCCNc2ccccn2)CCc2ccccc21 (stereo not drawn) [Example 29, 2-(3-{N-(5-(2-pyridylamino)pent-1-yl)carbamoyl}-1H,2H,4H,5H-benzo[d]azepinyl)acetic acid]",≤ 30
13,"O=C(O)CC1CN(C(=O)NCCCc2ccc3c(n2)NCCC3)CCc2ccccc21 (stereo not drawn) [Example 30, 2-{3-(N-(3-(1,2,3,4-tetrahydropyridino[2,3-b]pyridin-7-yl)propyl)carbamoyl)-1H,2H,4H,5H-benzo[d]azepin-1-yl}acetic acid]",≤ 30
14,"O=C(O)CC1CN(C(=O)CCCCCCNc2ccccn2)CCc2ccccc21 (stereo not drawn) [Example 32, 2-{3-(7-(2-pyridylamino)heptanoyl)-1H,2H,4H,5H-benzo[d]azepin-1-yl}acetic acid]",≤ 30
15,"CC(C)N(CCc1ccc2c(n1)NCCC2)C(=O)N1CCC(CC(=O)O)c2ccccc2C1 (stereo not drawn) [Example 41, 2-{2-[N-(methylethyl)-N-(2-(1,2,3,4-tetrahydroyridino[2,3-b]pyridin-7-yl)ethyl)carbamoyl]-1H,3H,4H,5H-benzo[e]azepin-5-yl]acetic acid]",≤ 30
16,N#C/N=C(\NCCCc1ccc2c(n1)NCCC2)N1CCC(CC(=O)O)c2ccccc2C1 (stereo not drawn) [Example 42],≤ 30
